Publication PMC10492782, “Exploiting the aggregation propensity of beta-lactamases to design inhibitors that induce enzyme misfolding” (Nature Communications, 2023)

How the values were obtained:
human erythrocytes = experiment: Hemolysis; conditions: 2 h at 37 °C, normalized to 1% triton
Method: Fig. 7 Evaluation of in vivo use of peptides that induce the aggregation of TEM beta-lactamase. A Lysis of human erythrocytes (hemolysis) was assessed in the presence of the indicated concentrations of TEM3.2 for 2 h at 37 °C, and normalized to the value obtained with 1% of the detergent triton. […] B Cell viability using the CellTiter Blue assay of HeLa cells treated for 24 h with the indicated concentrations TEM 3.2 at 37 °C. […] DAPI (4’,6-diamidino-2-phenylindole) is blue, while CellMask is red. D Experimental workflow of the in vivo model used in this study. E–G Bacterial load of indicated organs of female C57BL/6JAX mice with a urinary tract infection with E. coli strain UZ_TEM104, treated with 30 mg/kg penicillin (oral) as well 10 mg/kg tazobactam (oral) or 10 mg/kg TEM3.2 via the indicated treatment route. IV intravenous, IP intraperitoneal, SC subcutaneously. The data shown is from a single experiment with 12 animals for each group. The result for each animal is shown as a dot. […] The statistically significant differences were determined using ANOVA, followed by Dunnett’s multiple comparison test. […] Source data are provided as a Source Data file.

NCI-H441 = conditions: 24 h, 400 to 12.5 µg/mL
Method: (§1) The Cell Titer Blue assay was performed to evaluate the cell viability according to the instructions of the manufacturer (Promega, USA). The peptide treatments were done in DMEM medium without serum. Briefly, cells were seeded to approximately 20,000 mammalian cells per well in a 96-well flat-bottom plate (BD Biosciences 353075) and incubated at 37 °C with 5% CO2 and 90% humidity. Peptides were diluted in cell medium, and cells were treated for 24 h. 20 μL of the CellTiter Blue reagent was added to each well and the plate was incubated for 1 h at 37 °C. The fluorescence was measured at 590 nm by exciting at 560 nm with a ClarioStar plate reader (BMG Labtech, Germany).
(§2) Khodaparast et al Supplementary data
(§3) Supplementary Figure 12: Cell viability assays on mammalian cells using the CellTiter Blue assay, plotted as relative values compared to vehicle. The colours of the bars show the concentrations indicated in the legends in µg/mL, ranging from 400 to 6.25 µg/mL. The dots indicate individual measurements on independent wells of cells (4 repeats), the bars

SH-SY5Y = conditions: 24 h, 400 to 6.25 µg/mL
Method: as §1, §2, §3

HT-1376 = conditions: 24 h, 400 to 6.25 µg/mL
Method: as §1, §2, §3

HEK293 = conditions: 24 h, 400 to 6.25 µg/mL
Method: as §1, §2, §3

[1] = tested on: primary mouse cortical neurons; conditions: 24 h, 400 to 6.25 µg/mL
Method: as §1, §2, §3

[2] = tested on: primary Human Umbilical Vein Endothelial Cells (HUVEC); conditions: 24 h, 400 to 12.5 µg/mL
[3] = biological target: T1, recombinantly purified TEM-1 (Escherichia coli, UniProt P62593); format: biochemical, E. coli; conditions: pFTAA fluorescence kinetics
T1 construct: His-tag (N); TEV cleavage site (N); made in house; host or cells: E. coli BL21 (DE3)
Method: Fig. 4 Aggregation kinetics of TEM and SHV proteins and peptides. A Measurements of the hydrodynamic radius by Dynamic Light Scattering of 50 μM TEM3.2 in buffer alone, or in the presence of LPS or polyphosphate (PolyP). […] C Transmission Electron Micrograph of 50 μM TEM 3.2 incubated for 24 h in the same buffer as A with polyP, negatively stained with 2% (w/v) uranyl acetate. A single representative image is shown. […] Three replicates are shown for each condition. E Aggregation kinetics using pFTAA fluorescence emission of recombinantly purified TEM-1, in the presence of vehicle, or TEM 3.2 peptin, as well as peptin-only control. F Similar as in E, but using an off-target Pept-In, based on an APR sequence of beta-galactosidase. G Similar to E, but now using a previously published off-target Pept-In, based on an APR of HcaB. The plots are the results of a single experiment, all replicates are shown. Source data are provided as a Source Data file.

E. coli SHV11 = experiment: Checkerboard assay (FICI); format: cell-based, Escherichia coli; conditions: strain containing SHV-11, FICI below 0.5 = synergy
Method: To quantify the synergy between these four peptides and penicillin G, we performed a so-called checkerboard assay, which allows us to compare the activity of two test compounds co-incubated (here peptide and a beta-lactam antibiotic), to their individual activities in isolation. […] We evaluated the synergy of the peptides with penicillin G in clinical E. coli isolates carrying the TEM (Fig. 3D) or SHV enzymes (Fig. 3E). […] The list of strains included some that harbored only TEM or SHV, but others contained additional Ambler Class A (CTX-M or OXA) or Class B (VIM and NDM) beta-lactamases.
For the analysis of synergy between the peptides and other antibiotics, a checkerboard assay was performed. Based on the MICs of the selected peptides, a checkerboard assay was designed to define their FICIs (Fractional Inhibitory Concentration Index) in combinations against different clinical isolates[53],[54]. Briefly, a total volume of 100 μL of Mueller–Hinton broth was distributed into each well of the 96-well plates. […] FICI is calculated as the sum of the individual fractional inhibitory concentrations (FICs) for each drug (where MIC A and MIC B denote the MIC of each drug alone, and MIC AA+B and MIC BA+B denote the concentrations of A and B in the drug combination). […]

E. coli UZ_TEM104 = experiment: FACS with pFTAA (aggregation) and propidium iodide (cell death); format: cell-based, Escherichia coli
Method: Fig. 6 Uptake and inclusion body formation upon peptide treatment. Fluorescence-activated cell-sorting (FACS) (A) of E. coli strain UZ_TEM104 mixed 50–50% with the same strain after heat-inactivation. The cells were stained with pFTAA to monitor aggregation and propidium iodide (PI) to monitor cell permeabilization associated with cell death. 10^6 cells were analyzed for the plot. […] B Similar FACS analysis as in A, but with a sample of live bacteria only. […] Note: the horizontal and vertical lines correspond to the gatings used to obtain the quantifications shown in the corners of each image.
Treated bacteria were washed with PBS buffer two times. One microliter of PI (Invitrogen) was added to the bacteria and incubated for 5 min. The bacteria were counted by FACS to reach 40000 events. To correlate the activity of the peptides with cell death, the fluorescence intensity was measured in two channels using the Gallios^TM Flow Cytometer (Beckman Coulter, USA), PI: excitation 536 nm and emission 617 nm, FITC: excitation 490 nm and emission 525 nm. Heated bacteria at 90 °C for 10 min were used as PI-positive control.
The bacterial cultures were washed with PBS, and the number of bacteria was adjusted to 10^8–10^9 cells/mL. […] Then, cells were treated with LCO dyes (pFTAA; Amytacker^TM680 or Amytacker^TM545: final concentration of 0.5 µM; Ebba Biotech, Sweden) for at least 90 min. The absorption, emission, and excitation spectra for each dye were measured based on the standard Ebbabiotec advice (ebbabiotech.com).

T1 sequence (P62593 24-286 limits assumed): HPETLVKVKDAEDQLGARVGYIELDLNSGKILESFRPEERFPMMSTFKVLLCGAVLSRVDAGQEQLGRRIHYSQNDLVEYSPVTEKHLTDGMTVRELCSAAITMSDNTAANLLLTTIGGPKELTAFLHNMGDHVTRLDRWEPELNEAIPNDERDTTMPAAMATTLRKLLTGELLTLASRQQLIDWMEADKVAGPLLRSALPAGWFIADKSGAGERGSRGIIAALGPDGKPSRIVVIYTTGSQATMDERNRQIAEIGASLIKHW

Ac-RLTAFLHNRRPRLTAFLRQRR-NH2 [TEM3.2]
hemolysis (in words) (human erythrocytes): not hemolytic to human erythrocytes | cytotoxicity, Cell Titer Blue (in words) (NCI-H441): not cytotoxic | cytotoxicity, Cell Titer Blue (in words) (SH-SY5Y): not cytotoxic | cytotoxicity, Cell Titer Blue (in words) (HT-1376): not cytotoxic | cytotoxicity, Cell Titer Blue (in words) (HEK293): not cytotoxic | cytotoxicity, Cell Titer Blue (in words) [1]: not cytotoxic | cytotoxicity, Cell Titer Blue (in words) [2]: not cytotoxic | induction of aggregation of recombinantly purified TEM beta-lactamase (in words) [3]: potent inducer of the aggregation of the TEM beta-lactamase | synergy with penicillin G (in words) (E. coli SHV11): showed synergy in both strains | cells with non-lethal aggregation (pFTAA shift) (E. coli UZ_TEM104; 50 μg/mL TEM3.2, 4 h in PBS): > 99% | shift in pFTAA and PI channels (in words) (E. coli UZ_TEM104; 4 h, penicillin G 400 μg/mL and/or TEM3.2 50 μg/mL): a shift of the bacterial population only in the pFTAA channel
